Measurements: patent publication US20240285631A1, “METHODS OF TREATING VASCULAR MALFORMATIONS” (priority 2023, published 2024)

Tested on: human umbilical vein endothelial cells
Test: Proliferation of human umbilical vein endothelial cells assessed by EdU uptake
Assay type: cell-based
Details: in vitro, dose response
Excerpt: FIG. 16 illustrates palbociclib, CVT-313 and ribociclib dose response effects on proliferation of human umbilical vein endothelial cells assessed by EdU uptake.
This example discusses that endothelial cell cycle dysregulation is a mechanism involved in the development of arterio-venous malformations in HHT, as well as other types of vascular malformations named above. Palbociclib, a FDA-approved cell cycle inhibitor, could be used to prevent arterio-venous and other malformations, including venous, capillary, lymphatic and cerebral cavernous malformations.

SMILES: COc1ccc(CNc2nc(N(CCO)CCO)nc3c2ncn3C(C)C)cc1 [CVT-313, 2-[2-hydroxyethyl-[6-[(4-methoxyphenyl)methylamino]-9-propan-2-ylpurin-2-yl]amino]ethanol]
- EC proliferation assessed by EdU uptake: inhibit EC proliferation

SMILES: CN(C)C(=O)c1cc2cnc(Nc3ccc(N4CCNCC4)cn3)nc2n1C1CCCC1 [Ribociclib, 7-cyclopentyl-N,N-dimethyl-2-[(5-piperazin-1-ylpyridin-2-yl)amino]pyrrolo[2,3-d]pyrimidine-6-carboxamide]
- EC proliferation assessed by EdU uptake: inhibit EC proliferation
